According to the supplement of paper PMC10307832:

What was measured:
Assay in all cases: relative viability (nuclei count vs DMSO), 5 days (fraction); higher = more cells survive
[1] = compound: CC[C@H](C)N1C=C(C2=C(C=C(C=C21)C3=CN=C(C=C3)N4CCNCC4)C(=O)NCC5=C(C=C(NC5=O)C)C)C [GSK126] + CCNC(=O)c1noc(-c2cc(C(C)C)c(O)cc2O)c1-c1ccc(CN2CCOCC2)cc1 [Luminespib] (partner 0.01 µM)
In short: (§1)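 Relative viability is defined as nuclei in treated wells over nuclei in vehicle wells. Duplicate plates were run and medians reported. Lung cancer cell lines in 1536-well plates were dosed by pin tool one day after seeding, with one drug or with a fixed anchor-drug dose plus five library-drug doses (not always all listed) in √10 steps, and nuclei were counted after 5 days.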

[2] = compound: CC[C@H](C)N1C=C(C2=C(C=C(C=C21)C3=CN=C(C=C3)N4CCNCC4)C(=O)NCC5=C(C=C(NC5=O)C)C)C [GSK126] + O=C(c1cc(Cc2n[nH]c(=O)c3ccccc23)ccc1F)N1CCN(C(=O)C2CC2)CC1 [Olaparib] (partner 8 µM)
In short: as §1

[3] = compound: NS(=O)(=O)OC[C@@H]1C[C@@H](n2ccc3c(N[C@H]4CCc5ccccc54)ncnc32)C[C@@H]1O [MLN4924] + CS(=O)(=O)CCNCc1ccc(-c2ccc3ncnc(Nc4ccc(OCc5cccc(F)c5)c(Cl)c4)c3c2)o1 [Lapatinib] (partner 2 µM)
In short: as §1

[4] = compound: NS(=O)(=O)OC[C@@H]1C[C@@H](n2ccc3c(N[C@H]4CCc5ccccc54)ncnc32)C[C@@H]1O [MLN4924] + Nc1ncn([C@H]2C[C@H](O)[C@@H](CO)O2)c(=O)n1 [Decitabine] (partner 2 µM)
In short: as §1

Row | Cell Line | relative viability ([1]; first compound 0.08 µM) | relative viability ([1]; first compound 0.253 µM) | relative viability ([1]; first compound 0.8 µM) | relative viability ([1]; first compound 2.53 µM) | relative viability ([1]; first compound 8 µM) | relative viability ([2]; first compound 0.08 µM) | relative viability ([2]; first compound 0.253 µM) | relative viability ([2]; first compound 0.8 µM) | relative viability ([2]; first compound 2.53 µM) | relative viability ([2]; first compound 8 µM) | relative viability ([3]; first compound 0.04 µM) | relative viability ([3]; first compound 0.1265 µM) | relative viability ([3]; first compound 0.4 µM) | relative viability ([3]; first compound 1.265 µM) | relative viability ([3]; first compound 4 µM) | relative viability ([4]; first compound 0.04 µM) | relative viability ([4]; first compound 0.1265 µM) | relative viability ([4]; first compound 0.4 µM) | relative viability ([4]; first compound 1.265 µM) | relative viability ([4]; first compound 4 µM)
1 | 201T | 1.01 | 1.05 | 1.08 | 1.12 | 1.2 | 0.867 | 0.845 | 0.831 | 0.906 | 0.886 | 1.13 | 1.09 | 0.826 | 0.384 | 0.417 | 0.88 | 0.653 | 0.582 | 0.368 | 0.293
2 | A549 | – | – | – | – | – | 0.361 | 0.297 | 0.336 | 0.333 | 0.368 | 0.71 | 0.667 | 0.079 | 0.0634 | 0.0662 | 0.213 | 0.189 | 0.112 | 0.0579 | 0.0418
3 | A-427 | 1.29 | 0.87 | 0.82 | 0.884 | 0.769 | 0.704 | 0.724 | 0.701 | 0.765 | 0.837 | 0.589 | 0.608 | 0.268 | 0.196 | 0.169 | 0.445 | 0.421 | 0.309 | 0.282 | 0.265
4 | ABC-1 | 0.737 | 0.449 | 0.575 | 1.13 | 0.955 | 0.573 | 0.698 | 0.869 | 0.691 | 0.659 | 1.11 | 1.45 | 1.71 | 0.773 | 0.552 | 1.12 | 1.33 | 0.929 | 0.28 | 0.402
5 | BEN | 0.465 | 0.681 | 0.222 | 0.419 | 0.342 | 1.23 | 1.01 | 1.16 | 1.13 | 1.12 | 0.671 | 0.522 | 0.249 | 0.145 | 0.104 | 0.517 | 0.436 | 0.383 | 0.288 | 0.243
6 | CAL-12T | 0.605 | 0.552 | 0.45 | 0.496 | 0.636 | 0.809 | 0.713 | 0.758 | 0.829 | 0.643 | – | 0.603 | 0.354 | 0.198 | 0.243 | – | – | – | – | –
7 | COR-L23 | 0.752 | 0.702 | 0.614 | 0.637 | 0.608 | 0.422 | 0.33 | 0.33 | 0.354 | 0.387 | 0.921 | 0.672 | 0.431 | 0.142 | 0.106 | 0.465 | 0.431 | 0.321 | 0.156 | 0.138
8 | COR-L 105 | 1.01 | 0.74 | 0.78 | 0.734 | 0.839 | 0.586 | 0.628 | 0.732 | 0.583 | 0.631 | 0.355 | 0.335 | 0.337 | 0.282 | 0.281 | 0.658 | 0.523 | 0.397 | 0.263 | 0.328
9 | Calu-6 | – | – | – | – | – | 0.604 | 0.664 | – | 0.612 | 0.577 | 0.868 | 0.6 | 0.211 | 0.122 | 0.129 | – | – | – | – | –
10 | ChaGo-K-1 | 0.602 | 0.675 | 0.556 | 0.769 | 0.397 | 0.419 | 0.419 | 0.432 | 0.5 | 0.431 | – | – | – | – | – | 0.409 | 0.276 | 0.297 | 0.2 | 0.184
11 | EBC-1 | – | – | – | – | – | 0.743 | 0.711 | 0.702 | 0.684 | 0.615 | 0.246 | 0.297 | 0.228 | 0.191 | 0.216 | – | – | – | – | –
12 | EKVX | 0.842 | 0.878 | 0.856 | 0.836 | 0.896 | 0.929 | 1 | 0.808 | 1.11 | 0.816 | 0.208 | 0.311 | 0.19 | 0.119 | 0.102 | 0.35 | 0.369 | 0.346 | 0.22 | 0.191
13 | EMC-BAC-2 | 1.19 | 1.17 | 1.17 | 1.11 | 1.24 | 0.512 | 0.436 | 0.502 | 0.436 | 0.47 | 0.468 | 0.913 | 0.303 | 0.217 | 0.178 | 0.829 | 0.663 | 0.428 | 0.219 | 0.264
14 | EPLC-272H | 0.485 | 0.198 | 0.595 | 0.522 | 0.237 | 0.818 | 0.749 | 0.697 | 0.806 | 0.804 | 0.848 | 0.805 | 0.106 | 0.119 | 0.165 | 0.325 | 0.284 | 0.0744 | 0.108 | 0.106
15 | H3255 | 0.988 | 0.968 | 0.898 | 0.95 | 1.01 | 0.571 | 0.553 | 0.517 | 0.582 | 0.57 | 0.253 | 0.38 | 0.201 | 0.185 | 0.208 | 0.469 | 0.392 | 0.338 | 0.228 | 0.218
16 | HARA | 0.787 | 0.679 | 0.688 | 0.895 | 0.813 | 0.994 | 0.911 | 0.934 | 0.861 | 0.657 | 0.856 | 0.607 | 0.283 | 0.0754 | 0.0741 | 0.496 | 0.379 | 0.379 | 0.203 | 0.156
17 | HCC-15 | 0.494 | 0.268 | 0.41 | 0.286 | 0.245 | 0.749 | 0.776 | 0.686 | 0.608 | 0.745 | 0.514 | 0.374 | 0.115 | 0.0895 | 0.0956 | 0.322 | 0.217 | 0.17 | 0.0917 | 0.111
